Values joined by “and” are separate entries in the source; they are usually repeats but may differ in a detail not shown here. Equal values may be shown once.
Experiments:
[1] = test system: T1, κ-OR (CHO-hκ-OR); experiment: Antagonism of dynorphin A (10 nM) at κ-OR in the [35S]GTPγS assay; assay type: biochemical, human; conditions: for [35S]GTPγS binding (% increase over basal), Mean / [35S]GTPγS binding (% increase over basal), single experiments: antagonist 3 μM; for [35S]GTPγS binding (% increase over basal), Mean: without antagonist mean 213; for [35S]GTPγS binding (% increase over basal), single experiments: without antagonist 130 and 296
T1 construct: expressed in transfected cells; host or cells: CHO cells, stably transfected; membranes

[2] = test system: κ-OR; parameters: method as in doi:10.1007/978-1-59745-197-0_6; conditions: cited from earlier work
[3] = target: T2, human κ-OR (Homo sapiens, UniProt P41145); experiment: Competitive inhibition of [3H]diprenorphine binding to CHO-κ-OR membranes; conditions: for Ki: displacement of [3H]diprenorphine from CHO cell membranes expressing human κ-OR, n = 3, in duplicate, read-out: Ki ± SEM
T2 construct: expressed in transfected cells; host or cells: CHO cells, stably transfected; membranes

[4] = target: T3, mouse δ opioid receptor (Mus musculus, UniProt P32300); experiment: biochemical; assay type: binding
T3 construct: expressed in transfected cells; host or cells: CHO cells, stably transfected; membranes

[5] = target: T4, rat μ opioid receptor (Rattus norvegicus, UniProt P33535); experiment: biochemical; assay type: binding
T4 construct: expressed in transfected cells; host or cells: CHO cells, stably transfected; membranes

[6] = target: T2, human κ-OR; experiment: biochemical

| SMILES | [35S]GTPγS binding (% increase over basal), Mean [1] | antagonism of dynorphin A (in words) ([1]; primary screen at 3 μM) | Ke [2] | [35S]GTPγS binding (% increase over basal), single experiments [1] | Ki [3] | affinity for δ-OR (in words) [4] | affinity for µ-OR (in words) [5] | EC50 [6] | Emax [6] | inhibition at 3 µM ([3]; 3 µM, κ-OR, read-out: inhibition (displacement) of [3H]diprenorphine binding, initial screening) | Ki [4] | Ki [5] |
| --- | --- | --- | --- | --- | --- | --- | --- | --- | --- | --- | --- | --- |
| CC(C)[C@@H](CN1CC[C@@](C)(c2cccc(O)c2)[C@@H](C)C1)NC(=O)[C@H]1Cc2ccc(O)cc2CN1 [JDTic, reference compound] | 0 % increase over basal | abolished response to dynorphin A | < 40 pM | – | – | – | – | – | – | – | – | – |
| COC(=O)C1CC(OC(C)=O)C(=O)C2C1(C)CCC1C(=O)OC(c3ccoc3CN(C)C)CC12C (stereo not drawn) [compound 2] | 251 % increase over basal | – | – | 182 % increase over basal and 319 % increase over basal | > 1 µM | no affinity | no affinity | – | – | – | – | – |
| COC(=O)C1CC(OC(C)=O)C(=O)C2C1(C)CCC1C(=O)OC(c3coc(CN(C)C)c3)CC12C (stereo not drawn) [compound 3] | 208 % increase over basal | – | – | 146 % increase over basal and 270 % increase over basal | > 1 µM | no affinity | no affinity | – | – | – | – | – |
| COC(=O)C1CC(OC(C)=O)C(=O)C2C1(C)CCC1C(=O)OC(c3ccoc3CO)CC12C (stereo not drawn) [compound 4] | 332 % increase over basal | – | – | 249 % increase over basal and 415 % increase over basal | 0.11 ± 0.01 µM | – | – | 0.345 ± 0.047 µM | 103% | ≥ 50% | – | – |
| COC(=O)C1CC(OC(C)=O)C(=O)C2C1(C)CCC1C(=O)OC(c3cc(CO)oc3CO)CC12C (stereo not drawn) [compound 5] | 226 % increase over basal | – | – | 175 % increase over basal and 278 % increase over basal | > 1 µM | no affinity | no affinity | – | – | – | – | – |
| COC(=O)C1CC(OCOCCO)C(=O)C2C1(C)CCC1C(=O)OC(c3ccoc3)CC12C (stereo not drawn) [compound 6] | – | – | – | – | 0.0127 ± 0.0013 µM | – | – | – | – | – | > 1 µM | > 1 µM |

From publication PMC3896271 (Beilstein Journal of Organic Chemistry, 2013)
